What is called IC50 is the concentration at which inhibition is half-maximal.

The values that follow come from patent US20230364070A1, “PYRROLO[3,2-C]PYRIDIN-4-ONE DERIVATIVES USEFUL IN THE TREATMENT OF CANCER” (Scorpion Therapeutics, Inc., priority 2020, published 2023).

Holding throughout (type): cell-based
Assay [1] concerns the target T1, pEGFR in Ba/F3 cells expressing EGFR exon 20 NPG Ins D770_N771 (Homo sapiens, UniProt P00533, INS770NPG).
T1 construct: expressed in transfected cells; host or cells: Ba/F3 (murine pro-B cells), retroviral transduction, puromycin selection, IL3-independent pool
Put plainly: Inhibitor activity on EGFR phosphorylation (pEGFR AlphaLISA, 2 h), Ba/F3 EGFR exon 20 NPG insertion. Conditions: Ba/F3 EGFR exon 20 NPG Ins D770_N771. (Bead proximity is the source of the signal in Alpha formats.)

The target in the next assay is T2, pEGFR in CUTO14 cells (Homo sapiens, UniProt P00533, DUP767-769).
T2 construct: endogenous in cells; host or cells: CUTO14 cells
Put plainly: Inhibitor activity on EGFR phosphorylation (pEGFR AlphaLISA, 2 h), CUTO14 cells. The procedure:
CUTO14 cells were obtained from Dr. Robert C. Doebele at the University of Colorado.
Shake 350 rpm for 1 hr in the dark • 3.4 Prepare donor mix under low light conditions prior to use. Dispense 5 μL of donor mix to all the wells. Mix well on the shaker, seal and wrap in aluminum foil and incubate 1.5 hrs at room temperature in the dark • 3.5 Transfer 18.5 μL mixture to OptiPlate 384, and read using an Envision.

The next assay deals with T3, Ba/F3 cells with EGFR WT (Homo sapiens, UniProt P00533).
T3 construct: expressed in transfected cells; host or cells: Ba/F3 (murine pro-B cells), retroviral transduction, puromycin selection, maintained with EGF
Put plainly: EGFR activity: Ba/F3 cell viability (CellTiter-Glo, 72 h), EGFR WT. Conditions: read-out: BaF3 WT IC50.

In assay [2] the target is T4, Ba/F3 cells with EGFR exon 20 NPG Ins D770_N771 (Homo sapiens, UniProt P00533, INS770NPG).
T4 construct: expressed in transfected cells; host or cells: Ba/F3 (murine pro-B cells), retroviral transduction, puromycin selection, IL3-independent pool
The experiment in a line: EGFR activity: Ba/F3 cell viability (CellTiter-Glo, 72 h), EGFR exon 20 NPG insertion. Conditions: EGFR exon 20 NPG Ins D770_N771, cell viability, read-out: BaF3 NPG IC50. Background: In ATP-based viability assays light output follows the ATP content of the culture.

Assay [3] addresses T5, Ba/F3 cells with EGFR exon 20 ASV Ins V769_D770 (Homo sapiens, UniProt P00533, INS769ASV).
T5 construct: expressed in transfected cells; host or cells: Ba/F3 (murine pro-B cells), retroviral transduction, puromycin selection, IL3-independent pool
Put plainly: EGFR activity: Ba/F3 cell viability (CellTiter-Glo, 72 h), EGFR exon 20 ASV insertion. Conditions: EGFR exon 20 ASV Ins V769_D770, cell viability, read-out: BaF3 ASV IC50.

T2 sequence (P00533 with tags, fused parts or gaps DUP767-769): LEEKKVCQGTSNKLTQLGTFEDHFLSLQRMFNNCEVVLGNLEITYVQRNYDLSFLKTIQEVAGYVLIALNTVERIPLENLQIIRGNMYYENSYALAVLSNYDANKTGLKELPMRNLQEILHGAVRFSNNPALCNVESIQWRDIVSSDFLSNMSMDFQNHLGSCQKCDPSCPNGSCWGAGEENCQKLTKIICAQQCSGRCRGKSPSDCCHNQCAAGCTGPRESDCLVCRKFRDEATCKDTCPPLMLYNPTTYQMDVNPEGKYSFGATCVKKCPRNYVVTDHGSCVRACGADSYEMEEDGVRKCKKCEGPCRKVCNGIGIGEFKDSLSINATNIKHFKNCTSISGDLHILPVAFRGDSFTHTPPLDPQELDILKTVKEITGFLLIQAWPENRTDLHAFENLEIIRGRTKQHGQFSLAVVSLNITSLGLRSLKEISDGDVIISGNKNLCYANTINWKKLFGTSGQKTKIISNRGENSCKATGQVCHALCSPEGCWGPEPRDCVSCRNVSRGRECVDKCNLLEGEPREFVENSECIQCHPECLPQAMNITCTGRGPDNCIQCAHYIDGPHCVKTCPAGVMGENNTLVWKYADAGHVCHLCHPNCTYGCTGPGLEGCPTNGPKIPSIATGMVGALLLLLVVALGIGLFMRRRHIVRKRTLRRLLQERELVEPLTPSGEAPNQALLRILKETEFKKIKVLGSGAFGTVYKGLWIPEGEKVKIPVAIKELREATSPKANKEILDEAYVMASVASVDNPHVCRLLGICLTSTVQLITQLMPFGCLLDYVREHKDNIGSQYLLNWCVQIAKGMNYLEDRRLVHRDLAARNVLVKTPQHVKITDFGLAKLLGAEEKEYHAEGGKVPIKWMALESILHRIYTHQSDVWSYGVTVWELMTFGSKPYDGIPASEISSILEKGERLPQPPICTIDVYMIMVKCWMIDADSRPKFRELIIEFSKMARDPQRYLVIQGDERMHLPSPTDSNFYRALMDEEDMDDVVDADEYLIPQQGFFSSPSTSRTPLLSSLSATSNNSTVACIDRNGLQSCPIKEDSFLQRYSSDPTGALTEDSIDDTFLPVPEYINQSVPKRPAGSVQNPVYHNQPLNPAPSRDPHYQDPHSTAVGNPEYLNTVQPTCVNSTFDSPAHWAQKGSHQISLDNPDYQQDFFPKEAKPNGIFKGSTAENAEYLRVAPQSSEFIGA
T5 sequence (P00533 with tags, fused parts or gaps INS769ASV): as the sequence (P00533 with tags, fused parts or gaps DUP767-769) above
T3 sequence (P00533 25-1210): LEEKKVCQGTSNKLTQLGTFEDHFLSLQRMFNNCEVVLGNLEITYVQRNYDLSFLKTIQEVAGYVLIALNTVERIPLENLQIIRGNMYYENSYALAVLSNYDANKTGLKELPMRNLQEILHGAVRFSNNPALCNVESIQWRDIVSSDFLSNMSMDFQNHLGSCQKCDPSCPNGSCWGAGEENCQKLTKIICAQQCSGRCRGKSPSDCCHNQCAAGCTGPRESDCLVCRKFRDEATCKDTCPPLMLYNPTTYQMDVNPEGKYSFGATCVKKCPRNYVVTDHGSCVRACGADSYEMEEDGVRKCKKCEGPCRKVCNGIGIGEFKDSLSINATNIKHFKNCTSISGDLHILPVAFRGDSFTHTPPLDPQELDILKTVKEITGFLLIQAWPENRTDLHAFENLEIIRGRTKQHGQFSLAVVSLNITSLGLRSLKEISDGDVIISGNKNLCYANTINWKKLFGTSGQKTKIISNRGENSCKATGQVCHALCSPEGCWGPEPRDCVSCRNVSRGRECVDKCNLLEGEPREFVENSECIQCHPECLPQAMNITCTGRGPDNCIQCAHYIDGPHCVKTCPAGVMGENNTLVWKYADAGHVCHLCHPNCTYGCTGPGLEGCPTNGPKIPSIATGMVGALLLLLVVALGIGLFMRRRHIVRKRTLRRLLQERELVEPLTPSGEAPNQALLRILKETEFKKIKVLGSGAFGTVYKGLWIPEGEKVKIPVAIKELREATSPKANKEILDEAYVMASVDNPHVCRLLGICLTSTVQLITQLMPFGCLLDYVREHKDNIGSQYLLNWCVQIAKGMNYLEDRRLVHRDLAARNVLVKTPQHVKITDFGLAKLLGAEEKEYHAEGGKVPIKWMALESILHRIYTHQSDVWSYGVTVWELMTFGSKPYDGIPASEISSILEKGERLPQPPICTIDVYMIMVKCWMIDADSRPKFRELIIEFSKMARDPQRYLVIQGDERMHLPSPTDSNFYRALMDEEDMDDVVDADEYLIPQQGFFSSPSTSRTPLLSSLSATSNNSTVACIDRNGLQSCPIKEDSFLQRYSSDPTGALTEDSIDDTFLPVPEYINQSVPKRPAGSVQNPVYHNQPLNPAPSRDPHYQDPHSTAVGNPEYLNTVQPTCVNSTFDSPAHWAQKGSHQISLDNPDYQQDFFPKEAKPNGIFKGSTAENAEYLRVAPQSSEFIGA
T4 sequence (P00533 with tags, fused parts or gaps INS770NPG): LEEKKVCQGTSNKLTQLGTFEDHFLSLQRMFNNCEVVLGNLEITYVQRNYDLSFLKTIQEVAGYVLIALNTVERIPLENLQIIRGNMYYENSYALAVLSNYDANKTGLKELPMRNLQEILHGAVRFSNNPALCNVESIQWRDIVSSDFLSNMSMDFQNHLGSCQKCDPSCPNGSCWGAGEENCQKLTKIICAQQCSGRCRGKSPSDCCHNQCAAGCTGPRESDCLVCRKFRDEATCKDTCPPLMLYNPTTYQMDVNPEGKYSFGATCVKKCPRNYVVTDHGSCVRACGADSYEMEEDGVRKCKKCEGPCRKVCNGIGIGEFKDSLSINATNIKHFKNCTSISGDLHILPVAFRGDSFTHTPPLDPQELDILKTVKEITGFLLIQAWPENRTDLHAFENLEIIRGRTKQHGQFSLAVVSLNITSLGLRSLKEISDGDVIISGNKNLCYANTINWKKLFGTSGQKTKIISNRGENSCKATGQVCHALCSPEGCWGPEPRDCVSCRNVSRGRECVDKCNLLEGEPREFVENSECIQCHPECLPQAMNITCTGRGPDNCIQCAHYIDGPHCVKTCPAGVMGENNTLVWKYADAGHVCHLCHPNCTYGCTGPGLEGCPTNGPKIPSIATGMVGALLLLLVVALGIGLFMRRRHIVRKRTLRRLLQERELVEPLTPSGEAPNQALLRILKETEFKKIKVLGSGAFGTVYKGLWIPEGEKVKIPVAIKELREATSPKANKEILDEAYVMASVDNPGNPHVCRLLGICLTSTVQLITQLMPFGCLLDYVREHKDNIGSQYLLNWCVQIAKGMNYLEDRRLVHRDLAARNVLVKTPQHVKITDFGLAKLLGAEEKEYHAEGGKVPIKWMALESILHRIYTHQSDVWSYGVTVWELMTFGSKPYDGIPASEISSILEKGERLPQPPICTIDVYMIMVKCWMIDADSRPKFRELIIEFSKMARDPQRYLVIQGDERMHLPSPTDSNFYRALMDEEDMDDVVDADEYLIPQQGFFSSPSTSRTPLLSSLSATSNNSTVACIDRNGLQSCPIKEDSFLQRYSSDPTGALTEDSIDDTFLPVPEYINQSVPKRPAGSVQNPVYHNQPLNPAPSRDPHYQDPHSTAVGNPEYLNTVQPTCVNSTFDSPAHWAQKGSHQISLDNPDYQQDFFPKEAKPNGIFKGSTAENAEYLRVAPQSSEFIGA

In assay [1], `C=CC(=O)N1CCOC[C@H]1C#Cc1cnccc1-c1[nH]c2c(c1Nc1cccc(Cl)c1OC)C(=O)NCC2` [compound 514, 3-[(3-chloro-2-methoxyphenyl)amino]-2-(3-{2-[(3R)-4-(prop-2-enoyl)morpholin-3-yl]ethynyl}pyridin-4-yl)-1H,5H,6H,7H-pyrrolo[3,2-c]pyridin-4-one] displayed an IC50 of under 100 nM.

`COc1c(Cl)cccc1Nc1c(-c2ccncc2OC[C@@H]2CN(C(C)=O)CCO2)[nH]c2c1C(=O)NCC2` [compound 195, 2-(3-{[(2S)-4-acetylmorpholin-2-yl]methoxy}pyridin-4-yl)-3-[(3-chloro-2-methoxyphenyl)amino]-1H,5H,6H,7H-pyrrolo[3,2-c]pyridin-4-one] returned an IC50 in assay [1] of under 100 nM.

On to `COc1c(Cl)cccc1Nc1c(-c2ccncc2OC[C@@H]2CCN2S(C)(=O)=O)[nH]c2c1C(=O)NCC2` [compound 192, 3-[(3-chloro-2-methoxyphenyl)amino]-2-(3-{[(2S)-1-methanesulfonylazetidin-2-yl]methoxy}pyridin-4-yl)-1H,5H,6H,7H-pyrrolo[3,2-c]pyridin-4-one], for which the IC50 in assay [1] is under 100 nM.

For `C=CC(=O)N1CCC[C@H]1COc1cnccc1-c1[nH]c2c(c1Nc1cccc(F)c1OC)C(=O)NCC2` [compound 212, 3-[(3-fluoro-2-methoxyphenyl)amino]-2-(3-{[(2S)-1-(prop-2-enoyl)pyrrolidin-2-yl]methoxy}pyridine-4-yl)-1H,5H,6H,7H-pyrrolo[3,2-c]pyridin-4-one], in assay [1], the IC50 was under 100 nM.

For `C=CC(=O)N1CCC[C@@]1(C)C#Cc1cnccc1-c1[nH]c2c(c1Nc1cccc(F)c1OC)C(=O)NCC2` [compound 246, 3-[(3-fluoro-2-methoxyphenyl)amino]-2-(3-{2-[(2S)-2-methyl-1-(prop-2-enoyl)pyrrolidin-2-yl]ethynyl}pyridin-4-yl)-1H,5H,6H,7H-pyrrolo[3,2-c]pyridin-4-one], the IC50 in assay [1] was under 100 nM.

In turn, `COc1c(F)cccc1Nc1c(-c2ccncc2Oc2cnn(C)c2)[nH]c2c1C(=O)NCC2` [compound 484, 3-[(3-fluoro-2-methoxyphenyl)amino]-2-[3-[(1-methylpyrazol-4-yl)oxy]pyridin-4-yl]-1H,5H,6H,7H-pyrrolo[3,2-c]pyridin-4-one] registered an IC50 in assay [1] of over 1000 nM.

In turn, `COc1c(Cl)cccc1Nc1c(-c2ccncc2C#C[C@H]2COCCN2C)[nH]c2c1C(=O)NCC2` [compound 494, 3-[(3-chloro-2-methoxyphenyl)amino]-2-(3-[2-[(3S)-4-methylmorpholin-3-yl]ethynyl]pyridin-4-yl)-1H,5H,6H,7H-pyrrolo[3,2-c]pyridin-4-one] gave an IC50 in assay [1] of under 100 nM.

`COc1c(Cl)cccc1Nc1c(-c2ccncc2C#C[C@H]2CCN2C(=O)/C=C/CN(C)C)[nH]c2c1C(=O)NCC2` [compound 456]: the IC50 against pEGFR in CUTO14 cells was under 100 nM; on Ba/F3 cells with EGFR WT, 100 to 1000 nM; in assay [2] it was under 100 nM; in assay [3] it was under 100 nM.

Take `CC#CC(=O)N1CC[C@]1(C)COc1cnccc1-c1[nH]c2c(c1Nc1cccc(F)c1OC)C(=O)NCC2` [compound 307]: the IC50 on pEGFR in CUTO14 cells was under 100 nM; at Ba/F3 cells with EGFR WT, 100 to 1000 nM; in assay [2], under 100 nM; in assay [3], under 100 nM.

For the compound `CC#CC(=O)N1CC[C@@H]1C#Cc1cnccc1-c1[nH]c2c(c1Nc1cccc(F)c1OC)C(=O)NCC2` [compound 373], the IC50 (against pEGFR in CUTO14 cells; on Ba/F3 cells with EGFR WT; in assay [2]; in assay [3]) was under 100 nM throughout.

`C=CC(=O)N1CCOC[C@H]1COc1cnccc1-c1[nH]c2c(c1Nc1cccc(F)c1OC)C(=O)NCC2` [compound 190]: the IC50 against pEGFR in CUTO14 cells is under 100 nM; at Ba/F3 cells with EGFR WT it was 100 to 1000 nM; in assay [2] it was under 100 nM; in assay [3] it was under 100 nM.

For the compound `COc1c(F)cccc1Nc1c(-c2ccncc2C#C[C@@]2(C)CCCN2C(=O)/C=C/CN2CC(F)(F)C2)[nH]c2c1C(=O)NCC2` [compound 445], the concentration for half-maximal inhibition (IC50) on pEGFR in CUTO14 cells is 100 to 1000 nM; at Ba/F3 cells with EGFR WT, over 1000 nM; in assay [2], 100 to 1000 nM; in assay [3] it was 100 to 1000 nM.
